Reference: US20040072180A1, “Dna binding peptide domains and a method for providing domains of this type” (priority 2000, published 2004)

Tested on: yeast strain YM 4271 transformed with pHISi3xE2Fwt
Assay: Growth of pHISi3xE2Fwt-transformed yeast colonies on histidine-free minimal medium agar with increasing 3-aminotriazole
Type: cell-based
Settings: no histidine
Description: 1 μg of pHISi3xE2Fwt was completely linearized with 10 U of XhoI for 1 hour, purified using the QiaQuick PCR Purification Kit (Qiagen/Hilden, Germany) according to the manufacturer's instructions and taken up in 50 μl of water. […] This culture was incubated with shaking at 30° C. until an optical density of 0.4-0.6 at 600 nm was reached. The culture was then removed by centrifugation at 1000× g for 5 minutes, and the cells were taken up in 1.5 ml of 100 mM lithium acetate pH 7.5, 10 mM Tris-HCl pH 7.5, 1 mM EDTA. 100 μl of said cells, 50 μl of the linearized plasmid and 100 μg of heat-denatured salmon sperm DNA were admixed with 600 μl of a PEG/LiAc solution (100 mM lithium acetate pH 7.5, 10 mM Tris-HCl pH 7.5, 1 mM EDTA, 40% (w/v) polyethylene glycol 4000) and incubated with shaking at 30° C. for 30 min. After adding 70 μl of dimethyl sulfoxide, the mixture was incubated at 42° C. for 15 min. The cells were subsequently removed by centrifugation, washed in 1 ml of 10 mM Tris-HCl pH 7.5, 1 mM EDTA and plated out in their entirety on a minimal medium agar plate without addition of histidine, on which 12 colonies had grown after 7 days at 30° C.

Nc1nc[nH]n1 [3-aminotriazole]
3-AT concentration at which growth was completely suppressed (one clone (yeast3xE2Fwt)): 2 mM
3-AT concentration at which growth was suppressed markedly (one clone (yeast3xE2Fwt)): 0.5 mM
3-AT concentration at which growth was inhibited (remaining 10 clones): > 30 mM
3-AT concentration at which clones did not grow any more (this clone and another clone): 3 mM
